Test results from patent EP0109623A1, “Phenyl-propanol amines, their preparation and use” (BASF Aktiengesellschaft, priority 1982, dated 1984).
Where a name gives a salt, the structure may show the parent alone. Read-outs that look alike come from different tables or passages of the source.

Tests used:
Serotonin-Aufnahme = target: T1, Serotonin-Aufnahme (Rattus norvegicus, UniProt P31652); experiment: Inhibition of 3H-serotonin uptake in rat brain synaptosomes (cortex); assay type: biochemical, Ratte
T1 construct: Durch differentielle Zentrifugation wurden Synaptosomen erhalten; from tissue; host or cells: rat brain cortex synaptosomes
Source text: (§1) Als Wirkungsmechanismus einer Gruppe therapeutisch vielfach genutzter Antidepressiva (z.B. tricyclische Antidepressiva) ist eine Hemmung der neuronalen Aufnahme von Transmittersubstanzen (Noradrenalin und/oder Serotonin) anzusehen. Diese Eigenschaft wird in biologischen Testmodellen zur Charakterisierung von potentiellen Antidepressiva verwendet. Es wurde folgende Methodik eingesetzt: • Hemmung der Neurotransmitter-Aufnahme in Rattenhirn-Synaptosomen
(§2) Hippocampus und Cortex aus Rattenhirn wurden präpariert und in 0,32 M Sucrose-Lösung homogenisiert. Durch differentielle Zentrifugation wurden Synaptosomen erhalten, die in Pufferlösung suspendiert wurden. Die Synaptosomen sind in der Lage, aus dem umgebenden Medium zugefügte Neurotransmittersubstanzen (z.B. Noradrenalin oder Serotonin) aktiv aufzunehmen. Dieser Vorgang ist durch Aufnahme-Hemmer konzentrationsabhängig antagonisierbar. Die Synaptosomen wurden mit den Testsubstanzen in verschiedenen Konzentrationen versetzt und anschließend mit ^3H-Noradrenalin (Hippocampus) bzw. ^3H-Serotonin (Cortex) bei 37°C inkubiert. Die Substratkonzentration betrug ca. 10 nM. Nach Stoppen der Aufnahme durch Verdünnen mit eisgekühlter Pufferlösung wurden die Synaptosomen i abzentrifugiert und die ^3H-Aktivität im Sediment gemessen. Der Blindwert wird durch Inkubation bei 0°C ermittelt.
(§3) Aus den bei verschiedenen Inhibitor-Konzentrationen gegen Kontrolle ermittelten Hemmwerten wurde durch lineare Regression nach logit-log-Transformation die mittlere Hemmkonzentration (ICso) berechnet.

Noradrenalin-Aufnahme = Noradrenalin-Aufnahme (Rattus norvegicus, UniProt Q9WTR4); experiment: Inhibition of 3H-noradrenaline uptake in rat brain synaptosomes (hippocampus); assay type: biochemical, Ratte; conditions: for IC50: rat hippocampus synaptosomes, 3H-Noradrenalin ca. 10 nM, 37°C, read-out: Hemmung der Neurotransmitter-Aufnahme in Synaptosomen Noradrenalin IC50; for absolute Wirkstärke bei der Hemmung der Noradrenalin-Aufnahme: potency relative to Imipramin
Source text: as §1, §2, §3

[1] = rat cortex synaptosomes, 3H-Serotonin ca. 10 nM, 37°C, read-out: Hemmung der Neurotransmitter-Aufnahme in Synaptosomen Serotonin IC50

T1 sequence (P31652 whole entry): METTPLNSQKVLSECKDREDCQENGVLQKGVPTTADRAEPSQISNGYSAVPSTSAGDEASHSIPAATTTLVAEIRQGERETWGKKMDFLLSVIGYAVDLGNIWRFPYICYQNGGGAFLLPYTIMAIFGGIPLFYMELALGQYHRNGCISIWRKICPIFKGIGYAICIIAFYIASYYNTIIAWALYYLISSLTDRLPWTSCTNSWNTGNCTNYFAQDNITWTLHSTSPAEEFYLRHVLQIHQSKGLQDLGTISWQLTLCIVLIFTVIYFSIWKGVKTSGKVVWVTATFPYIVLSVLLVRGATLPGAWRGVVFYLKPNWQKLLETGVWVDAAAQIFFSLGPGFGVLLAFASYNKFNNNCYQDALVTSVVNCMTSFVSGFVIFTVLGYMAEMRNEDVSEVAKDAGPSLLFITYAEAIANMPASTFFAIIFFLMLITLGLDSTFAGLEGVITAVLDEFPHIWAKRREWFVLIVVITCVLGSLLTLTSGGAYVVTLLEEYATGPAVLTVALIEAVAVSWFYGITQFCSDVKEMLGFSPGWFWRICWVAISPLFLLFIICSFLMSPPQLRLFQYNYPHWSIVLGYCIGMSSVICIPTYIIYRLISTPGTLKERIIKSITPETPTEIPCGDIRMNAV
Sequence of Noradrenalin-Aufnahme (Q9WTR4 1-597): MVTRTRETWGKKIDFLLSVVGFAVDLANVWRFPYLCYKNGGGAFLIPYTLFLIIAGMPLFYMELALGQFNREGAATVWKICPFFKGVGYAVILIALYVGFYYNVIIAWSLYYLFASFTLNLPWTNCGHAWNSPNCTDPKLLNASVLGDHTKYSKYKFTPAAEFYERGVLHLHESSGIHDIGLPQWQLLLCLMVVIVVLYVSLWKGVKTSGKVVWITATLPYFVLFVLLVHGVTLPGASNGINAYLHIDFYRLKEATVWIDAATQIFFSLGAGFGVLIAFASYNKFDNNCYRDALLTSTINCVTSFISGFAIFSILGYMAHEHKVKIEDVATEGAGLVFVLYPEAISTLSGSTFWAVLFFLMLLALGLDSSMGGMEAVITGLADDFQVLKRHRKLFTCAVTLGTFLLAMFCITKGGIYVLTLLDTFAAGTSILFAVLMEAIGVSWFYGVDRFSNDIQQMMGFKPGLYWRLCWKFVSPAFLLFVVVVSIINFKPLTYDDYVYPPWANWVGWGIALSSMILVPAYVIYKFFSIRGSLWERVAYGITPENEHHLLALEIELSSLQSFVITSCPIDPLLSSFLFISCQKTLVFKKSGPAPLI

Row | SMILES | IC50 (Serotonin-Aufnahme; [1]) [nM] | IC50 (Noradrenalin-Aufnahme) [nM] | absolute Wirkstärke bei der Hemmung der Noradrenalin-Aufnahme (Noradrenalin-Aufnahme) | IC50 (Serotonin-Aufnahme) [nM]
1 | CN(C)CC(COc1ccc(Cl)cc1)C(O)c1ccccc1 (stereo not drawn) [Beispiel 1.2, 2-(4-Chlorphenoxymethyl)-1-dimethylamino-3-phenyl-propanol-(3)] | 20 | 180 | – | –
2 | CCC(O)(c1ccccc1)C(COc1ccc(Cl)cc1)CN(C)C (stereo not drawn) [Beispiel 2.7, 2-(4-Chlorphenoxymethyl)-1-dimethylamino-3-phenyl-pentanol-(3) Hydrochlorid] | 3.1 | 150 | – | –
3 | CCCCCCCCC(O)(c1ccccc1)C(COc1ccccc1)CN(C)C (stereo not drawn) [Beispiel 2.10, 1-Dimethylamino-2-phenoxymethyl-3-phenyl-undecanol-(3)] | 49 | 38 | – | –
4 | CN(C)CC(CSc1ccccc1)C(O)c1ccccc1 (stereo not drawn) [Beispiel 1.6, 1-Dimethylamino-3-phenyl-2-thiophenoxymethyl-propanol-(3)] | 65 | 1.7 | 8 -fach | –
5 | COc1ccc(OCC2CN(C)CCC2c2ccccc2)cc1 (stereo not drawn) [Femoxetin, reference compound] | – | 330 | – | –
6 | CN(C)CC(COc1ccc(Br)cc1)C(O)c1ccccc1 (stereo not drawn) [Beispiel 1.4, 2-(4-Bromphenoxymethyl)-1-dimethylamino-3-phenylpropanol-(3) Hydrochlorid] | 73 | 17 | – | –
7 | C=CCOC(c1ccccc1)C(COc1ccccc1)CN(C)C (stereo not drawn) [Beispiel 6, 3-Allyloxy-1-dimethylamino--2-phenoxymethyl-3-phenyl-propan] | – | 17 | – | 56
8 | CN(C)CC(COc1ccccc1)C(C)(O)c1ccccc1 (stereo not drawn) [Beispiel 2.4, 1-Dimethylamino-2-phenoxymethyl-3-phenyl-butanol-(3) Hydrochlorid] | 66 | 36 | – | –
9 | CN(C)CC(COc1ccccc1)C(O)(c1ccccc1)c1ccccc1 (stereo not drawn) [Beispiel 2.2, 1-Dimethylamino-3,3-diphenyl-2-phenoxymethyl-propanol-(3)] | 200 | 94 | – | –
10 | CN(C)CC(COc1ccc(Cl)cc1)C(C)(O)c1ccccc1 (stereo not drawn) [Beispiel 2.8, 2-(4-Chlorphenoxymethyl)-1-dimethylamino-3-phenyl-butanol-(3) Hydrochlorid] | 3.8 | 160 | – | –
11 | CN(C)CC(COc1ccc(Cl)cc1)C(O)(c1ccccc1)c1ccccc1 (stereo not drawn) [Beispiel 2.3, 2-(4-Chlorphenoxymethyl)1-dimethylamino-3,3-diphenyl-propanol-(3)] | 26 | 94 | – | –
12 | CCOC(=O)OC(c1ccccc1)C(COc1ccccc1)CN(C)C (stereo not drawn) [Beispiel 5.3, 1-Dimethylamino-3-ethoxycarbonyloxy-2-phenoxymethyl-3-phenyl-propan Hydrochlorid] | – | 20 | – | 300
13 | CN(C)CC(COc1ccccc1)C(O)c1ccc(F)cc1 (stereo not drawn) [Beispiel 1.3, 1-Dimethylamino-3-(4-fluorphenyl)-2-phenoxymethyl-propanol-(3) Hydrochlorid] | 490 | – | – | –
14 | CCC(O)(c1ccccc1)C(COc1ccccc1)CN(C)C (stereo not drawn) [Beispiel 2, 1-Dimethylamino-3-phenyl-2-phenoxymethyl-pentanol-(3) Hydrochlorid] | 25 | 11 | – | –
15 | CN(C)CC(COc1ccccc1)C(O)c1ccccc1 (stereo not drawn) [Beispiel 1, 1-Dimethylamino-2-phenoxymethyl-3-phenyl-propanol-(3)] | 190 | 5.2 | – | –
16 | CCC(O)(c1ccccc1)C(COc1ccc(Cl)cc1)CN(C)C (stereo not drawn) [Beispiel 2.9, 2-(4-Chlorphenoxymethyl)-1-dimethylamino-3-phenyl-pentanol-(3) Hydrochlorid] | 100 | 68 | – | –
17 | CC(=O)OC(c1ccccc1)C(COc1ccccc1)CN(C)C.Cl (stereo not drawn) [Beispiel 5, 3-Acetoxy-1-dimethylamino-2-phenoxymethyl-3-phenylpropan Hydrochlorid] | – | 1.7 | 8 -fach | 400
18 | CCCCCCCCCCCCC(O)(c1ccccc1)C(COc1ccccc1)CN(C)C (stereo not drawn) [Beispiel 2.11, 1-Dimethylamino-2-phenoxymethyl-3-phenyl-pentadecanol-(3)] | 300 | 500 | – | –
19 | CCCC(O)(c1ccccc1)C(COc1ccccc1)CN(C)C (stereo not drawn) [Beispiel 2.5, 1-Dimethylamino-2-phenoxymethyl-3-phenyl-hexanol-(3) Hydrochlorid] | 37 | 13 | – | –
20 | CCCC(O)(c1ccccc1)C(COc1ccc(Cl)cc1)CN(C)C (stereo not drawn) [Beispiel 2.6, 2-(4-Chlorphenoxymethyl)-1-dimethylamino-3-phenyl-hexanol-(3) Hydrochlorid] | 3.6 | 200 | – | –
21 | C=CC(O)(c1ccccc1)C(COc1ccccc1)CN(C)C (stereo not drawn) [Beispiel 2.12, l-Dimethylamino-2-phenoxymethyl-3-phenyl-pent-4-enol-(3) Hydrochlorid] | 69 | 100 | – | –
